Reference: ChEMBL document CHEMBL1134432 (Bioorg Med Chem Lett, 2001)

What was measured:
[1] = organism: Rattus norvegicus; test: Effective concentration required to determined hallucinogen-like activity in LSD-trained rats; format: functional
[2] = target: T1, 5-hydroxytryptamine receptor 1A (Homo sapiens, UniProt P08908); test: Binding affinity towards human 5-hydroxytryptamine 1A receptor was determined using [3H]8-OH-DPAT-as radioligand
T1 sequence (P08908 whole entry): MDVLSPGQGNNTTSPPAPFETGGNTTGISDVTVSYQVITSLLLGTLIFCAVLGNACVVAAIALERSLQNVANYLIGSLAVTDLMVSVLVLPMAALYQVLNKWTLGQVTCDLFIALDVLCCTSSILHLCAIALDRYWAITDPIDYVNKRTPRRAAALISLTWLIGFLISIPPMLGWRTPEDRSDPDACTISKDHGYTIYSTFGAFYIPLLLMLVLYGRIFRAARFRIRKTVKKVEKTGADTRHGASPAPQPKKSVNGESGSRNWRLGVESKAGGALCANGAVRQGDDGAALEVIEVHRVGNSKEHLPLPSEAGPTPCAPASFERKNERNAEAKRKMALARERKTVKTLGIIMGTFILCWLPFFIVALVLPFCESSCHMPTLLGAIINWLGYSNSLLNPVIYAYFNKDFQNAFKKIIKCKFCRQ

[3] = tested on: Rattus norvegicus; test: Percentage of animals tested that selected the training compound appropriate level at 0.125 umol/kg in LY-293284-trained rats; format: functional
[4] = tested on: Rattus norvegicus; test: Percentage of animals tested that selected the training compound appropriate level at 0.25 umol/kg in LSD-trained rats; format: functional
[5] = tested on: Rattus norvegicus; test: Percentage of animals failed to emit 50 responses within 5 min at 0.125 umol/kg in LY-293284-trained rats; format: functional
[6] = tested on: Rattus norvegicus; test: Percentage of animals failed to emit 50 responses within 5 min at 0.125 umol/kg in DOI-trained rats; format: functional
[7] = tested on: Rattus norvegicus; test: Percentage of animals tested that selected the training compound appropriate level at 0.25 umol/kg in LY-293284-trained rats; format: functional
[8] = tested on: Rattus norvegicus; test: Percentage of animals failed to emit 50 responses within 5 min at 0.125 umol/kg in LSD-trained rats; format: functional
[9] = tested on: Rattus norvegicus; test: Percentage of animals tested that selected the training compound appropriate level at 0.125 umol/kg in LSD-trained rats; format: functional
[10] = tested on: Rattus norvegicus; test: Percentage of animals failed to emit 50 responses within 5 min at 0.5 umol/kg in LY-293284-trained rats; format: functional
[11] = tested on: Rattus norvegicus; test: Percentage of animals failed to emit 50 responses within 5 min at 0.5 umol/kg in DOI-trained rats; format: functional
[12] = tested on: Rattus norvegicus; test: Percentage of animals tested that selected the training compound appropriate level at 0.5 umol/kg in LSD-trained rats; format: functional
[13] = tested on: Rattus norvegicus; test: Percentage of animals tested that selected the training compound appropriate level at 0.5 umol/kg in LY-293284-trained rats; format: functional
[14] = tested on: Rattus norvegicus; test: Percentage of animals failed to emit 50 responses within 5 min at 0.5 umol/kg in LSD-trained rats; format: functional
[15] = tested on: Rattus norvegicus; test: Percentage of animals tested that selected the training compound appropriate level at 1 umol/kg in LY-293284-trained rats; format: functional
[16] = target: T2, 5-hydroxytryptamine receptor 2C (Rattus norvegicus, UniProt P08909); test: Binding affinity towards rat 5-hydroxytryptamine 2C receptor was determined using [125I]- DOI as radioligand
T2 sequence (P08909 whole entry): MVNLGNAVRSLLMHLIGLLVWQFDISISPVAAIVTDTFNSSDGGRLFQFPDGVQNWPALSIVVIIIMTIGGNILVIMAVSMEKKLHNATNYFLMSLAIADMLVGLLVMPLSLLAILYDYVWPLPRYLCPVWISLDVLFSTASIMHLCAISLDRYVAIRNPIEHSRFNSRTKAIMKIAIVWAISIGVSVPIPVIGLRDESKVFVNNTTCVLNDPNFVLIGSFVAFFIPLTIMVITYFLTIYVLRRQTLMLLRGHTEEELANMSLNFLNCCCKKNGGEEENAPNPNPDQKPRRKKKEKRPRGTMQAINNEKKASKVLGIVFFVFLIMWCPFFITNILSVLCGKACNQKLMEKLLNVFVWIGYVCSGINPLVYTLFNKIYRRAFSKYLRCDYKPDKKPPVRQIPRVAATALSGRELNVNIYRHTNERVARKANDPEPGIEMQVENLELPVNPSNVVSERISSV

[17] = tested on: Rattus norvegicus; test: Percentage of animals failed to emit 50 responses within 5 min at 0.25 umol/kg in DOI-trained rats; format: functional
[18] = tested on: Rattus norvegicus; test: Percentage of animals tested that selected the training compound appropriate level at 0.063 umol/kg in LY-293284-trained rats; format: functional
[19] = tested on: Rattus norvegicus; test: Percentage of animals failed to emit 50 responses within 5 min at 1 umol/kg in LSD-trained rats; format: functional
[20] = tested on: Rattus norvegicus; test: Percentage of animals failed to emit 50 responses within 5 min at 1 umol/kg in LY-293284-trained rats; format: functional
[21] = tested on: Rattus norvegicus; test: Percentage of animals failed to emit 50 responses within 5 min at 0.25 umol/kg in LY-293284-trained rats; format: functional
[22] = tested on: Rattus norvegicus; test: Percentage of animals tested that selected the training compound appropriate level at 0.125 umol/kg in DOI-trained rats; format: functional
[23] = tested on: Rattus norvegicus; test: Percentage of animals tested that selected the training compound appropriate level at 1 umol/kg in LSD-trained rats; format: functional
[24] = target: 5-hydroxytryptamine receptor 2A (Rattus norvegicus, UniProt P14842); test: Binding affinity towards rat 5-hydroxytryptamine 2A receptor was determined using [125I]- DOI as radioligand
5-hydroxytryptamine receptor 2A, sequence (P14842 whole entry): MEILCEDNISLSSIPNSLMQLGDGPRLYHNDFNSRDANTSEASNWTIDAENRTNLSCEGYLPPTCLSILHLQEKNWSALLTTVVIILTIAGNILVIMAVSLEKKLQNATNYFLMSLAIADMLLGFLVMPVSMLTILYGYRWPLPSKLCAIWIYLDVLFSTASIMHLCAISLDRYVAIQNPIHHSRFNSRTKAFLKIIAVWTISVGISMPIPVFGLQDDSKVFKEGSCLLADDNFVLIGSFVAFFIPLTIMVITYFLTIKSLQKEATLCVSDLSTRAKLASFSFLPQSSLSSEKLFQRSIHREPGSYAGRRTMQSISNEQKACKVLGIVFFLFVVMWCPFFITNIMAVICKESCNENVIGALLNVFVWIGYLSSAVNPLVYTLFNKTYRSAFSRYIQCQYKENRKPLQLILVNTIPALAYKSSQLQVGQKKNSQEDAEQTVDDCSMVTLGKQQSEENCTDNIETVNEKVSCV

[25] = tested on: Rattus norvegicus; test: Percentage of animals tested that selected the training compound appropriate level at 0.5 umol/kg in DOI-trained rats; format: functional
[26] = tested on: Rattus norvegicus; test: Percentage of animals failed to emit 50 responses within 5 min at 0.063 umol/kg in LY-293284-trained rats; format: functional
[27] = tested on: Rattus norvegicus; test: Percentage of animals tested that selected the training compound appropriate level at 0.25 umol/kg in DOI-trained rats; format: functional
[28] = tested on: Rattus norvegicus; test: Percentage of animals failed to emit 50 responses within 5 min at 0.25 umol/kg in LSD-trained rats; format: functional

Which ED50 [1] does the source give for `CCN(CC)C(=O)[C@@H]1C=C2c3cccc4[nH]cc(c34)C[C@H]2N(C)C1` [LYSERGIDE] here?
Its ED50 is 0.026 µmol/kg.

`COc1ccc2[nH]cc(CCN(C)C)c2c1F` was tested. Which Ki [2] did it give?
The Ki was 0.23 nM.

How did the SDL [3] turn out when `COc1ccc2[nH]cc(CCN3CCCC3)c2c1F` was run?
Its SDL is 66.6%.

What about the SDL [4] of the same molecule?
Its SDL is 57%.

And the D [5]?
The D was 10%.

And the D [6]?
Its D is 22%.

And the SDL [7]?
The SDL was 100%.

What about the D [8] of the same molecule?
The D was 10%.

What about the Ki [2] of the same molecule?
The Ki was 0.12 nM.

What about the SDL [9] of the same molecule?
The SDL was 11%.

What about the D [10] of the same molecule?
The D was 66.6%.

What about the D [11] of the same molecule?
The D was 50%.

What about the SDL [12] of the same molecule?
The SDL was 75%.

What about the SDL [13] of the same molecule?
The SDL was 100%.

What about the D [14] of the same molecule?
The D was 60%.

And the SDL [15]?
The SDL was 100%.

What about the Ki [16] of the same molecule?
Its Ki is 140 nM.

What about the D [17] of the same molecule?
The D was 30%.

And the SDL [18]?
The SDL was 25%.

What about the D [19] of the same molecule?
Its D is 78%.

And the D [20]?
The D was 90%.

And the D [21]?
Its D is 12.5%.

And the SDL [22]?
Its SDL is 0%.

And the SDL [23]?
The SDL was 67%.

And the Ki [24]?
Its Ki is 130 nM.

What about the SDL [25] of the same molecule?
Its SDL is 50%.

And the D [26]?
The D was 0%.

And the SDL [27]?
The SDL was 29%.

What about the D [28] of the same molecule?
Its D is 53%.

`COc1cc(CC(C)N)c(OC)cc1I` (stereo unspecified) was tested. Which ED50 [1] did it give?
Its ED50 is 0.29 µmol/kg.

`CCCN(CCC)C1CCc2cccc(O)c2C1` (stereo unspecified) [8-OH-DPAT] was tested. Which ED50 [1] did it give?
Its ED50 is 0.099 µmol/kg.
